Assays:
[1] = target: T1, de novo-synthesized PPARα (Mus musculus, UniProt P23204); assay: Immunoprecipitation and GC-MS of Ppara-null hippocampal neurons infected with lenti full-length PPARα; assay type: binding; conditions: lenti-FLPara-transduced, not empty lenti-vector
T1 construct: infected with lentiviral particles of full-length PPARα and then immunoprecipitation performed; expressed in transfected cells; host or cells: Ppara-null mouse hippocampal neurons, lentiviral transduction
T1 sequence (P23204 1-468): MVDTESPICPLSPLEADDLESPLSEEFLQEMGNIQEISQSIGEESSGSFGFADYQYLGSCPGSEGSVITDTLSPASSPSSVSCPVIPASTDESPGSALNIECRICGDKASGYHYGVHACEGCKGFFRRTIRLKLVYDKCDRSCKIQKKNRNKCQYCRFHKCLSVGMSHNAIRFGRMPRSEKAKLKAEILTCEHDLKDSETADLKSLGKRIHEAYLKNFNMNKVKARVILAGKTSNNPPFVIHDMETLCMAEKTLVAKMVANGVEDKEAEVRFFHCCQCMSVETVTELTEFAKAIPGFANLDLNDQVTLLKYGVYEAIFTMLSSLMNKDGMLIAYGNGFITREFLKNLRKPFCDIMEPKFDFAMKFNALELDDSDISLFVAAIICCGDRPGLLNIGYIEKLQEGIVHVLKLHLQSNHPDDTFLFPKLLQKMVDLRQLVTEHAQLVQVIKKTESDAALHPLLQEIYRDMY
Protocol: Identification of novel nuclear ligands of PPARα in the hippocampus PPARs are nuclear receptors that require the binding of ligands for activation of gene expression. […] In order to identify these ligands, a gas chromatography mass spectrometric (GCMS) technology was adopted. Briefly, nuclear extracts were prepared form mouse hippocampus, incubated with a GST-tagged PPARα ligand binding domain (LBD), purified with affinity chromatography, reconstituted with chloroform or acetonitrile, and GCMS analyses preformed. (FIG. 1A, FIGS. 7A-C.). […] Therefore, next cultured Ppara-null hippocampal neurons were infected with lentiviral particles of full-length PPARα and then immunoprecipitation performed followed by GCMS analyses (FIG. 1J, FIG. 7G-H). […] The efficiency of gene transduction was measured by immunoblot analyses of cell extract with PPARα antibody (FIG. 7I. In addition, these analyses successfully identified a group of biological ligands of PPARα, which are endogenously produced in the hippocampus. Some of these detected compounds are sulfur-containing unknown compounds such as thiazoles (MW 220-240), thiosemicarbazones (MW 190-200) and thiazolidine esters (MW 250-270) (Table 2). However, these compounds were excluded from this study because of their unknown biosynthetic pathway, relatively poor match-factor (<65), and commercial unavailability. […]

[2] = GC-MS of GFP-affinity purified extract of transduced Ppara-null hippocampal neurons; assay type: binding, mouse; conditions: Vector Only; for Rel. Abundance (RA): normalized with internal standard
Protocol: Lentivirus-mediated de novo expression studies were performed, where wild type full-length (GFP-FLPpara) was overexpressed and three different LBD-mutated PPARα (GFP-Y314D, GFP-Y464D and GFP-Y314D/Y464D Ppara) recombinant proteins (FIG. 9D) were expressed in neurons followed by binding analyses with three endogenous ligands. Briefly, site directed mutagenesis was performed in the mouse PPARα with Y314 and Y464 residues replaced separately or together with aspartate (D). After that, the entire mouse GFP-Ppara gene (GFP-FLPpara) and three different mutated genes were cloned in the pLenti6/V5-TOPO lentiviral expression vector (FIG. 3D), packaged in lentivirus particle with HEK293FT cells, purified full length and mutated PPARα proteins in a GFP-affinity column, and finally thermal shift assays were performed in order to analyze their conformational stability. […] After 48 h of transduction, the cells were homogenized, passed through GFP-affinity column, eluted, fractionated with chloroform-methanol, and finally analyzed by GC-MS for the detection of ligands. […] On the other hand, mutation of the Y464 completely knocked down the ligand binding affinity as we observed profound loss of ligand binding in both lenti-GFP-Y464D-Ppara (FIG. 3K, FIG. 9K) and lenti-GFP-Y314D/Y464D-Ppara (FIG. 3L, FIG. 9L)-transduced Ppara-null neurons. Throughout these analyses, we used 2,4-bis (α, α-dimethyl benzyl) phenol as an internal standard (Supplementary FIG. 5A-F). We normalized peak area of different ligands with that of internal standard and then quantified the binding affinity of these ligands with different construct of PPARα by peak integration statistics (Table 1).
Either E18 cultured mouse hippocampal neurons or hippocampal tissue of 6-8 week old male C57/BL6 mice were homogenized in ice-cold nondetergent hypotonic buffer [10 mM HEPES (pH 7.9), 1.5 mM MgCl2, 10 mM KCl, […], protease and phosphatase inhibitor cocktail]. After 10 min of additional incubation in the hypotonic buffer, the homogenate was centrifuged at 8,000 g at 4° C. for 10 min. Next, the pellet was homogenized in ice-cold extraction buffer [10 mM HEPES (pH 7.9), 1.5 mM MgCl2, 0.21 M NaCl, 0.2 mM EDTA, 25% (v/v) glycerol, […], protease and phosphatase inhibitor cocktail], placed on a rotating shaker at 4° C. for 1 h, and then centrifuged at 18,000 g for 10 min. The supernatant (nuclear fraction) was incubated with 1.5 μg of GST PPARα LBD (Protein One) at 4° C. for 6 h in a rotating shaker. The reaction mixture was passed through glutathione column (Pierce® GST Spin Purification Kit), washed four times [50 mM Tris HCl (pH 7.4), 100 mM NaCl, protease and phosphatase inhibitor cocktail] and then eluted with free glutathione. The eluate was transferred to methanol:chloroform:water (4:3:1) mixture and then centrifuged at 14,000 rpm for 90 sec. The organic phase was collected, evaporated in the SpeedVac, reconstituted with 30 μL chloroform or acetonitrile, and then analyzed by GC-MS. In another case, E18 cultured hippocampal neurons were transduced with lentiviral particles conjugated with PPARα-LBD or different GFP-tagged mutated constructs followed by pulling down with anti-PPARα antibody or passing the extract through GFP-column of Vector Fusion-Aid GFP Kit (Cat # MB-0732). After that, the eluate was collected from the column with 5M NaCl solution, concentrated with PD-10 desalting column and analyzed for GC-MS.
A JEOL GCMate II (JEOL USA, Peabody Mass.) mass spectrometer was used in these experiments. The gas chromatograph was an Agilent 6890Plus (Wilmington Del.) equipped with a G1513A auto-injector with 100 vial sample tray connected to a G1512A controller. The gas chromatography column was a fused silica capillary column with a nonpolar 5% phenyl 95% dimethylpolysiloxane phase (Agilent HP-5 ms), 30 meters long, 0.25 mm internal diameter, 0.25 μm film thickness. […]

Compound | binding to de novo-synthesized PPARα (GC-MS) [1] | % RA [2] [%] | Adjusted peak area [2] | Rel. Abundance (RA) [2]
CCCCCCCCCCCCCCCC(N)=O [HEX, hexadecanamide] | found to be bound | 1.92 | 17632 | 0.01924
CCCCCCCCC=CCCCCCCCC(N)=O [OCT, 9-octadecenamide] | found to be bound | 8.69 | 79623 | 0.08689
